Results on five compounds are retold here after patent US20260234129A1, “NOVEL IMIDAZOLE DERIVATIVE AND USE THEREOF” (PELEMED CO., LTD., priority 2023, published 2026).

One assay deals with T1, FLT3 (Homo sapiens, UniProt P36888).
T1 construct: Recombinant proteins containing FLT3 and FLT3(D835Y) domains were purchased from Promega; purchased Promega V4064
T1 sequence (P36888 610-943 limits assumed): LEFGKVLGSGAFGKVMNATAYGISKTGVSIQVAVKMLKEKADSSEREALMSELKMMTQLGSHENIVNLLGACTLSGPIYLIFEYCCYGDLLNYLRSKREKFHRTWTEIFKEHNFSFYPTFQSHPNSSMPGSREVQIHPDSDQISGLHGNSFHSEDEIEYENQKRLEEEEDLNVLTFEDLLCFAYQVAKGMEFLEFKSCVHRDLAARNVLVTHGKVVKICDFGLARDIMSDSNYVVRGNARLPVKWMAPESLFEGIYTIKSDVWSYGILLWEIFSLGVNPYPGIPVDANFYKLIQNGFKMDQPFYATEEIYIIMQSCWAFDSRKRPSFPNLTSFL
Put plainly: ADP-Glo kinase assay FLT3 WT. To be noted: recombinant FLT3, 120 minutes at room temperature, read-out: Enzyme (IC50) FLT3 WT. The class given is biochemical. How it is done:
(§1) FLT3 activity inhibition was measured using the ADP-Glo kinase assay method (Promega, cat #V9101). The ADP-Glo kinase assay method is a luminescent ADP detection assay method that provides a homogeneous, high-throughput screening method for measuring kinase activity by quantifying the amount of ADP produced during the kinase reaction.
(§2) The assay was performed in two steps. First, after the kinase reaction, an equal volume of ADP-Glo™ reagent was added to terminate the kinase reaction and deplete any remaining ATP. Second, a kinase detection reagent was added to convert ADP to ATP, and simultaneously the newly synthesized ATP was measured via the luciferase/luciferin reaction. The light produced was measured using a luminometer.
Recombinant proteins containing FLT3 and FLT3(D835Y) domains were purchased from Promega (cat #V4064, cat #V4514), respectively. According to the manufacturer's instructions, the optimal enzyme, ATP, and substrate concentrations were optimized using the ADP-Glo™ kinase assay method (Promega, USA). […] Thereafter, ADP-Glo™ reagent (5 μl) was added and reacted for an additional 40 minutes at room temperature. Finally, the detection reagent (kinase detection reagent, 10 μl) was added, followed by reaction at room temperature for 30 minutes, and the phosphorylation of the substrate peptide was measured by detecting the luciferase signal (integration time 0.5~1 sec) using a SpectraMax ID5 reader (Molecular Devices LLC., San Jose, CA, USA).
In general terms: ADP-Glo turns the ADP formed in a reaction into a luminescent signal.

The target in a further assay is T2, FLT3(D835Y) (Homo sapiens, UniProt P36888, D835Y).
T2 construct: Recombinant proteins containing FLT3 and FLT3(D835Y) domains were purchased from Promega; purchased Promega V4514
In words: ADP-Glo kinase assay FLT3 D835Y. It is filed as biochemical. The settings on record: recombinant FLT3(D835Y), 120 minutes at room temperature, read-out: Enzyme (IC50) FLT3 D835Y. How it is done: as §1, §2
Recombinant proteins containing FLT3 and FLT3(D835Y) domains were purchased from Promega (cat #V4064, cat #V4514), respectively. According to the manufacturer's instructions, the optimal enzyme, ATP, and substrate concentrations were optimized using the ADP-Glo™ kinase assay method (Promega, USA). […] Finally, the detection reagent (kinase detection reagent, 10 μl) was added, followed by reaction at room temperature for 30 minutes, and the phosphorylation of the substrate peptide was measured by detecting the luciferase signal (integration time 0.5~1 sec) using a SpectraMax ID5 reader (Molecular Devices LLC., San Jose, CA, USA).

Assay [1] concerns MV4-11 cells (FLT3-ITD-expressing AML cell line). In words: Cell proliferation inhibition, Alamar Blue. The class given is cell-based, human. The settings on record: Homo sapiens, MV4-11, 72 hours of compound treatment, read-out: Cellular (GI50) MV4-11. How it is done:
(§3) The cell proliferation inhibition experiment on acute myeloid leukemia (AML) cell lines was performed using FL3-ITD-expressing AML cell line MV4-11, BaF3-ITD-FLT3 F691L cell line, and BaF3-ITD-FLT3 D835Y cell line to test FLT3 inhibitory activity. All cell lines were human-derived cell lines, and the sources and culture conditions for each cell line are as follows.
(§4) Cell viability was assessed by a resazurin redox-based assay using the Alamar Blue Assay kit (Invitrogen, USA). Specifically, MV4-11, BaF3-ITD-FLT3-F691L, and BaF3-ITD-FLT3-D835Y cells were plated in 384-well plates at 8,000 cells in 45 μL of medium. As a negative control, dimethyl sulfoxide (DMSO) was added together with the compound. After three days (72 hours) of compound treatment, 5 μL of the Alamar Blue kit reagent was added to each well of the 384-well plates, followed by incubation at 37° C. for 2 hours in a humidified CO2 incubator. After incubation, fluorescence intensity (Flu) was measured at 544 nm and 590 nm using a SpectraMax iD3 Multi Mode Microplate Reader (Molecular Devices, ID3-STD).

Assay [2] deals with BaF3-ITD-FLT3 D835Y cell line. Put plainly: Cell proliferation inhibition, Alamar Blue. It is filed as cell-based. The settings on record: 72 hours of compound treatment, read-out: Cellular (GI50) BaF3-ITD-FLT3 D835Y. How it is done:
as §3, §4
(In general: Alamar Blue is a resazurin reagent that responds to reducing activity.)

Assay [3] has as its system BaF3-ITD-FLT3 F691L cell line. Put plainly: Cell proliferation inhibition, Alamar Blue. The class given is cell-based. The settings on record: 72 hours of compound treatment, read-out: Cellular (GI50) BaF3-ITD-FLT3 F691L. How it is done: as §3, §4

pIC50: −log10 of the molar value. Where only a bound is given, the exact number is not on record here.

Regarding `NCCCNC(=O)c1ccc2[nH]nc(-c3nc4ccc(C(=O)N5CCOCC5)cc4[nH]3)c2c1` [Example 21, N-(3-aminopropyl)-3-(6-(morpholine-4-carbonyl)-1H-benzo[d]imidazol-2-yl)-1H-indazole-5-carboxamide], the pIC50 on FLT3 and at FLT3(D835Y) was above 8.00 in each case. Further, in assay [1], the concentration for 50% growth inhibition (GI50) was 100 to 1000 nM.
For `O=C(NCC1CC(F)(F)C1)c1ccc2[nH]nc(-c3nc4ccc(N5CCCC5)cc4[nH]3)c2c1` [Example 14, N-((3,3-difluorocyclobutyl)methyl)-3-(6-(pyrrolidin-1-yl)-1H-benzo[d]imidazol-2-yl)-1H-indazole-5-carboxamide], the GI50 was 10 to 100 nM in assay [1], 10 to 100 nM in assay [2] and 100 to 1000 nM in assay [3].
For `O=C(NCC1CNC1)c1ccc2[nH]nc(-c3nc4ccc(-c5ccoc5)cc4[nH]3)c2c1` [Example 75, N-(azetidin-3-ylmethyl)-3-(6-(furan-3-yl)-1H-benzo[d]imidazol-2-yl)-1H-indazole-5-carboxamide], the GI50 was 10 to 100 nM in assay [1], below 10 nM in assay [2] and 10 to 100 nM in assay [3].
Turning to `N[C@H]1CC[C@H](NC(=O)c2ccc3[nH]nc(-c4nc5ccc(-c6ccco6)cc5[nH]4)c3c2)C1` [Example 80, N-((1S,3S)-3-aminocyclopentyl)-3-(6-(furan-2-yl)-1H-benzo[d]imidazol-2-yl)-1H-indazole-5-carboxamide], the values for the GI50 in assay [1], in assay [2] and in assay [3] were below 10 nM, below 10 nM and 10 to 100 nM, respectively.
For the compound `N[C@H]1CC[C@H](NC(=O)c2ccc3[nH]nc(-c4nc5ccc(N6CCCCC6)cc5[nH]4)c3c2)C1` [Example 31, N-((1S,3S)-3-aminocyclopentyl)-3-(6-(piperidin-1-yl)-1H-benzo[d]imidazol-2-yl)-1H-indazole-5-carboxamide], on FLT3, the pIC50 was above 8.00. The GI50 was below 10 nM in assay [1], below 10 nM in assay [2] and 10 to 100 nM in assay [3].

The pIC50 is the negative decadic logarithm of the IC50, by convention in mol/L. For orientation: GI50 means the concentration that inhibits growth by half.
